Test results reported in patent publication US11028078B2 (The Johns Hopkins University, priority 2011, dated 2021).

Assays:
HUVEC = HUVEC proliferation assay ([3H]thymidine incorporation); type: cell-based, human; settings: HUVEC; for Proliferation (EC50/IC50 Itra): footnote g: EC50 of analog relative to IC50 of itraconazole; for Proliferation (IC50/IC50 Itra): IC50 of analog relative to IC50 of itraconazole
Experimental: The activity of the analogs against HUVEC proliferation, an in vitro proxy for angiogenesis inhibition (Table 3) was analyzed. […]
Pooled HUVEC (Lonza) were grown in EGM-2 bullet kit media (Lonza) and used at passage eight or lower. The proliferation assays were conducted as previously described (Nacev, B.; Low, W. K.; Huang, Z.; Su, T.; Su, Z.; Alkuraya, H.; Kasuga, D.; Sun, W.; Trager, M.; Braun, M.; Fischer, G.; Zhang, K.; Liu, J. O., Acalcineurin-independent mechanism of angiogenesis inhibition by anon-immunosuppressive Cyclosporin Aanalog. J. Pharmacol. Exp. Ther. 2011, DOI:10.1124/jpet.111.18085).

VEGFR2 = VEGFR2 glycosylation in HUVEC (Western blot scoring); type: cell-based, human; settings: VEGFR2 hypoglycosylation score in HUVEC, 2 μM, 24 h
Experimental: VEGFR2 hypoglycosylation was scored either robust (++), intermediate (+), or absent (−) (FIG. 6).
HUVEC were seeded at 5×10^4 per well of a 6-well plate in 3 mL of media. After an overnight recovery, the media was replaced with 2 mL fresh media and the analogs were added from 200× stocks in DMSO. Following a 24-h incubation, the media was aspirated and 2×SDS sample buffer was added to the cells which were incubated on ice for 10 min and then boiled for 10 min. […] Following three washes in TBS-T, the membrane was incubated with anti-rabbit horseradish peroxidase conjugated IgG (GE Healthcare) (1:5000-1:10000 dilution) in 1% BSA in TBS-T. The membranes were washed three times in TBS-T, incubated for 1-5 minutes with ECL substrate (Immobilon Wester, Milipore) and visualized (Kodak Image Staion 440 CF).

[1] = tested on: MB cultures derived from Ptch−/+; p53−/− mice; test: Medulloblastoma (MB) proliferation assay; type: cell-based, mouse; settings: mouse medulloblastoma cultures, 96 h; relative to itraconazole
Text: These cultures were derived from Ptch^−/+; p53^−/− mice that spontaneously develop medulloblastoma associated with ligand independent Hh pathway activation.
MB cultures were derived from mouse Ptch^−/+; p53^−/− MB grown as hind-flank allografts in nude mice (Harlan). Briefly, tumors were mechanically disrupted and made into single cell suspensions by two passages through a 70 μm nylon filter. Cells were pelleted by centrifugation and resuspended in PBS pH 7.4 twice. The cell suspension was then subjected to centrifugation at 1000×g for 25 min over a ficoll gradient. The viable cell layer formed at the ficoll boundary was then collected, suspended in PBS, and pelleted by centrifugation. The resulting pellet was then suspended and cultured as “neurospheres” in Neurobasal Media-A supplemented with retinoic acid deficient B-27 extract (NBMedia). Cells were cultured for three passages, with neurospheres disaggregated using Accumax (Innovative Cell Technologies) between passages.
Cultured MB neurospheres were disaggregated as described and 1×10^4 cells were seeded into wells of a 96-well assay plate in NBMedia and exposed to multiple analogue concentrations: Relative cell numbers following a 96-h incubation were quantified by CellTiter 96® AQueous One Solution Cell Proliferation Assay (Promega) per manufacturer's recommendations using a SpectraMax M2e spectrophotometer and SoftMax Pro software (Molecular Devices). Data was analyzed using Prism5 (GraphPad Software) and IC50 and IC90 values were determined from dose-response curves fitted to mean corrected absorbance normalized to control treatment.

Gli1 transcript = test: Quantification of Gli1 transcript by TaqMan analysis in MB cells (Hh pathway); type: cell-based, mouse; settings: Gli1 transcript fold induction score; MB cells exposed 24 h at the IC90 for MB proliferation
Text: Inhibitors of the Hh pathway are known to inhibit MB cell proliferation. However, MB cell proliferation is also affected by drugs with targets other than Hh signaling.
Following drug exposure, cells were washed in PBS and pelleted by centrifugation at 300×g. Cell pellets were lysed in Trizol reagent (Invitrogen). Total RNA was separated and collected in the aqueous phase following centrifugation of lysate in the presence of chloroform. Total RNA was ethanol precipitated and purified over RNeasy Mini Kit (Qiagen) filter columns per manufacturer's recommendations. Transcript levels were quantified using gene-specific TaqMan primer/probe sets and the StepOne Plus Real-Time PCR system (Applied Biosystems) on cDNA reverse transcribed using the QuantiTect Reverse Transcription Kit (Qiagen) per manufacturers' recommendations. Results were quantified using StepOne Plus software v2.1 (Applied Biosystems) and were expressed as fold induction relative to control samples using the A ΔCt (2^−ΔΔCt) method with actin as an internal control. The primer/probe set (Applied Biosystems) for TaqMan PCR for mouse Gli-1 was Mm00494645_m1, and for mouse actin was Mm00607939_s1.

| Molecule | Proliferation (EC50/IC50 Itra) (HUVEC) | Glycosylation (2 μM dose) (VEGFR2) | MB Proliferation (IC50/IC50 Itra) [1] | Gli I Inhibition (IC90 Prolif. dose) (Gli1 transcript) | Proliferation (IC50/IC50 Itra) (HUVEC) |
| --- | --- | --- | --- | --- | --- |
| O=c1n(-c2ccc(N3CCN(c4ccc(OCC5COC(Cn6cncn6)(c6ccc(Cl)cc6Cl)O5)cc4)CC3)cc2)cnn1CCCCCCc1ccccc1 [Compound 7n, cis-(2S,4R)-4-[4-[4-[4-[[2-(2,4-Dichlorophenyl)-2-(1H-1,2,4-triazol-1-ylmethyl)-1,3-dioxolan-4-yl]methoxy]phenyl]-lpiperazinyl]phenyl]-2,4-dihydro-2-(6-phenylhexyl)-3H-1,2,4-triazol-3-one] | 1.45^g | − | 0.69 | ++ (≤0.15) |  |
| CCC#CCCn1ncn(-c2ccc(N3CCN(c4ccc(OCC5COC(Cn6cncn6)(c6ccc(Cl)cc6Cl)O5)cc4)CC3)cc2)c1=O [Compound 7o, cis-(2S,4R)-4-[4-[4-[4-[[2-(2,4-Dichlorophenyl)-2-(1H-1,2,4-triazol-1-ylmethyl)-1,3-dioxolan-4-yl]methoxy]phenyl]-lpiperazinyl]phenyl]-2,4-dihydro-2-(hex-3-ynyl)-3H-1,2,4-triazol-3-one] |  | − | 1.07 | ++ (≤0.15) | 1.09 |
| [N-]=[N+]=NCCCCCCn1ncn(-c2ccc(N3CCN(c4ccc(OCC5COC(Cn6cncn6)(c6ccc(Cl)cc6Cl)O5)cc4)CC3)cc2)c1=O [Compound 7p, cis-(2S,4R)-4-[4-[4-[4-[[2-(2,4-Dichlorophenyl)-2-(1H-1,2,4-triazol-1-ylmethyl)-1,3-dioxolan-4-yl]methoxy]phenyl]-lpiperazinyl]phenyl]-2,4-dihydro-2-(6-azidohexyl)-3H-1,2,4-triazol-3-one] |  | + | 0.70 | + (0.16 to 0.44) | 0.30 |
| CC/C=C/CCn1ncn(-c2ccc(N3CCN(c4ccc(OCC5COC(Cn6cncn6)(c6ccc(Cl)cc6Cl)O5)cc4)CC3)cc2)c1=O [Compound 7s, cis-(2S,4R)-4-[4-[4-[4-[[2-(2,4-Dichlorophenyl)-2-(1H-1,2,4-triazol-1-ylmethyl)-1,3-dioxolan-4-yl]methoxy]phenyl]-lpiperazinyl]phenyl]-2,4-dihydro-2-((E)-hex-3-enyl)-3H-1,2,4-triazol-3-one] |  | − | 0.63 | ++ (≤0.15) | 1.57 |
| CC/C=C\CCn1ncn(-c2ccc(N3CCN(c4ccc(OCC5COC(Cn6cncn6)(c6ccc(Cl)cc6Cl)O5)cc4)CC3)cc2)c1=O [Compound 7t, cis-(2S,4R)-4-[4-[4-[4-[[2-(2,4-Dichlorophenyl)-2-(1H-1,2,4-triazol-1-ylmethyl)-13-dioxolan-4-yl]methoxy]phenyl]-lpiperazinyl]phenyl]-2,4-dihydro-2-((Z)-hex-3-enyl)-3H-1,2,4-triazol-3-one] |  | − | 0.94 | ++ (≤0.15) | 0.73 |
| N#CCCCCCn1ncn(-c2ccc(N3CCN(c4ccc(OCC5COC(Cn6cncn6)(c6ccc(Cl)cc6Cl)O5)cc4)CC3)cc2)c1=O [Compound 7u, cis-(2S,4R)-4-[4-[4-[4-[[2-(2,4-Dichlorophenyl)-2-(1H-1,2,4-triazol-1-ylmethyl)-1,3-dioxolan-4-yl]methoxy]phenyl]-]piperazinyl]phenyl]-2,4-dihydro-2-(5-cyanopentyl)-3H-1,2,4-triazol-3-one] |  | ++ | 0.84 | + (0.16 to 0.44) | 0.18 |
| CCC1(Cn2ncn(-c3ccc(N4CCN(c5ccc(OCC6COC(Cn7cncn7)(c7ccc(Cl)cc7Cl)O6)cc5)CC4)cc3)c2=O)COC1 [Compound 7v, cis-(2S,4R)-4-[4-[4-[4-[[2-(2,4-Dichlorophenyl)-2-(1H-1,2,4-triazol-1-ylmethyl)-1,3-dioxolan-4-yl]methoxy]phenyl]-lpiperazinyl]phenyl]-2,4-dihydro-2-((3-ethyloxetan-3-yl)methyl)-3H-1,2,4-triazol-3-one] |  | ++ | 0.74 | + (0.16 to 0.44) | 0.77 |
| CC1(CCn2ncn(-c3ccc(N4CCN(c5ccc(OCC6COC(Cn7cncn7)(c7ccc(Cl)cc7Cl)O6)cc5)CC4)cc3)c2=O)N=N1 [Compound 7w, cis-(2S,4R)-4-[4-[4-[4-[[2-(2,4-Dichlorophenyl)-2-(1H-1,2,4-triazol-1-ylmethyl)-1,3-dioxolan-4-yl]methoxy]phenyl]-lpiperazinyl]phenyl]-2,4-dihydro-2-(2-(3-methyl-3H-diazirin-3-yl)ethyl)-3H-1,2,4-triazol-3-one] |  | + | 1.32 | + (0.16 to 0.44) | >13.8 |
| CC1(CCCCCCCn2ncn(-c3ccc(N4CCN(c5ccc(OCC6COC(Cn7cncn7)(c7ccc(Cl)cc7Cl)O6)cc5)CC4)cc3)c2=O)N=N1 [Compound 7x, cis-(2S,4R)-4-[4-[4-[4-[[2-(2,4-Dichlorophenyl)-2-(1H-1,2,4-triazol-1-ylmethyl)-1,3-dioxolan-4-yl]methoxy]phenyl]-lpiperazinyl]phenyl]-2,4-dihydro-2-(7-(3-methyl-3H-diazirin-3-yl)heptyl)-3H-1,2,4-triazol-3-one] | 1.1^g | − | 1.18 | − (≥0.45) |  |
| O=c1[nH]ncn1-c1ccc(N2CCN(c3ccc(OC[C@H]4CO[C@](Cn5cncn5)(c5ccc(Cl)cc5Cl)O4)cc3)CC2)cc1 [Compound 17a, 4-(4-(4-(4-(((2R,4S)-2-((1H-1,2,4-triazol-1-yl)methyl)-2-(2,4-dichlorophenyl)-1,3-dioxolan-4-yl)methoxy)phenyl)piperazin-1-yl)phenyl)-1H-1,2,4-triazol-5(4H)-one] |  | − | 0.89 | ++ (≤0.15) | 2.78 |
| cis-(2R,4S)-4-[4-[4-[4-[[2-(2,4-Dichlorophenyl)-2-(1H-1,2,4-triazol-1-ylmethyl)-1,3-dioxolan-4-yl]methoxy]phenyl]-lpiperazinyl]phenyl]-2,4-dihydro-2-(pent-4-ynyl)-3H-1,2,4-triazol-3-one [Compound 7r] |  | − | 0.71 | ++ (≤0.15) | 0.14 |
